Converted amounts (≈) assume the structure as drawn. The source made the active and inactive calls. The rule behind the calls is not given here.
How the values were obtained:
Type in all cases: functional
BT-549 = experiment: Growth inhibition of human BT549 cells at 10^-5 M incubated for 48 hrs by sulforhodamine B assay relative to control
HCT-116 = experiment: Growth inhibition of human HCT116 cells at 10^-5 M incubated for 48 hrs by sulforhodamine B assay relative to control
UACC-257 = experiment: Growth inhibition of human UACC257 cells at 10^-5 M incubated for 48 hrs by sulforhodamine B assay relative to control
NCI-H23 = experiment: Growth inhibition of human NCI-H23 cells at 10^-5 M incubated for 48 hrs by sulforhodamine B assay relative to control
OVCAR-5 = experiment: Growth inhibition of human OVCAR5 cells at 10^-5 M incubated for 48 hrs by sulforhodamine B assay relative to control
MDA-MB-231 = experiment: Growth inhibition of human MDA-MB-231/ATCC cells at 10^-5 M incubated for 48 hrs by sulforhodamine B assay relative to control
SNB-19 = experiment: Growth inhibition of human SNB19 cells at 10^-5 M incubated for 48 hrs by sulforhodamine B assay relative to control
MOLT-4 = experiment: Growth inhibition of human MOLT4 cells at 10^-5 M incubated for 48 hrs by sulforhodamine B assay relative to control
SK-MEL-5 = experiment: Growth inhibition of human SK-MEL-5 cells at 10^-5 M incubated for 48 hrs by sulforhodamine B assay relative to control
SF-539 = experiment: Growth inhibition of human SF539 cells at 10^-5 M incubated for 48 hrs by sulforhodamine B assay relative to control
SK-MEL-28 = experiment: Growth inhibition of human SK-MEL-28 cells at 10^-5 M incubated for 48 hrs by sulforhodamine B assay relative to control
COLO 205 = experiment: Growth inhibition of human COLO205 cells at 10^-5 M incubated for 48 hrs by sulforhodamine B assay relative to control
Candida albicans [1] = experiment: Antifungal activity against Candida albicans after 24 hrs by serial dilution method
Candida albicans [2] = experiment: Antifungal activity against Candida albicans at 100 ug/ml by disc diffusion method; conditions: read-out: IZ
OVCAR-8 = experiment: Growth inhibition of human OVCAR8 cells at 10^-5 M incubated for 48 hrs by sulforhodamine B assay relative to control
MCF7 = experiment: Growth inhibition of human MCF7 cells at 10^-5 M incubated for 48 hrs by sulforhodamine B assay relative to control
U-251 = experiment: Growth inhibition of human U251 cells at 10^-5 M incubated for 48 hrs by sulforhodamine B assay relative to control
OVCAR-4 = experiment: Growth inhibition of human OVCAR4 cells at 10^-5 M incubated for 48 hrs by sulforhodamine B assay relative to control
HL-60(TB) = experiment: Growth inhibition of human HL-60(TB) cells at 10^-5 M incubated for 48 hrs by sulforhodamine B assay relative to control
Hs-578T = experiment: Growth inhibition of human Hs 578T cells at 10^-5 M incubated for 48 hrs by sulforhodamine B assay relative to control
HCT-15 = experiment: Growth inhibition of human HCT15 cells at 10^-5 M incubated for 48 hrs by sulforhodamine B assay relative to control
786-0 = experiment: Growth inhibition of human 786-0 cells at 10^-5 M incubated for 48 hrs by sulforhodamine B assay relative to control
ACHN = experiment: Growth inhibition of human ACHN cells at 10^-5 M incubated for 48 hrs by sulforhodamine B assay relative to control
TK-10 = experiment: Growth inhibition of human TK10 cells at 10^-5 M incubated for 48 hrs by sulforhodamine B assay relative to control
SW-620 = experiment: Growth inhibition of human SW620 cells at 10^-5 M incubated for 48 hrs by sulforhodamine B assay relative to control
MDA-MB-468 = experiment: Growth inhibition of human MDA-MB-468 cells at 10^-5 M incubated for 48 hrs by sulforhodamine B assay relative to control
KM12 = experiment: Growth inhibition of human KM12 cells at 10^-5 M incubated for 48 hrs by sulforhodamine B assay relative to control
Aspergillus fumigatus = experiment: Antifungal activity against Aspergillus fumigatus after 24 hrs by serial dilution method
SK-MEL-2 = experiment: Growth inhibition of human SK-MEL-2 cells at 10^-5 M incubated for 48 hrs by sulforhodamine B assay relative to control
NCI-H460 = experiment: Growth inhibition of human NCI-H460 cells at 10^-5 M incubated for 48 hrs by sulforhodamine B assay relative to control
LOX IMVI = experiment: Growth inhibition of human LOXIMVI cells at 10^-5 M incubated for 48 hrs by sulforhodamine B assay relative to control
NCI-H522 = experiment: Growth inhibition of human NCI-H522 cells at 10^-5 M incubated for 48 hrs by sulforhodamine B assay relative to control
SNB-75 = experiment: Growth inhibition of human SNB75 cells at 10^-5 M incubated for 48 hrs by sulforhodamine B assay relative to control
M14 = experiment: Growth inhibition of human M14 cells at 10^-5 M incubated for 48 hrs by sulforhodamine B assay relative to control
IGROV-1 = experiment: Growth inhibition of human IGROV1 cells at 10^-5 M incubated for 48 hrs by sulforhodamine B assay relative to control
NCI/ADR-RES = experiment: Growth inhibition of human NCI-ADR-RES cells at 10^-5 M incubated for 48 hrs by sulforhodamine B assay relative to control
RXF 393 = experiment: Growth inhibition of human RXF393 cells at 10^-5 M incubated for 48 hrs by sulforhodamine B assay relative to control
EKVX = experiment: Growth inhibition of human EKVX cells at 10^-5 M incubated for 48 hrs by sulforhodamine B assay relative to control
UO-31 = experiment: Growth inhibition of human UO31 cells at 10^-5 M incubated for 48 hrs by sulforhodamine B assay relative to control
T47D = experiment: Growth inhibition of human T47D cells at 10^-5 M incubated for 48 hrs by sulforhodamine B assay relative to control
SF-295 = experiment: Growth inhibition of human SF295 cells at 10^-5 M incubated for 48 hrs by sulforhodamine B assay relative to control
A549 = experiment: Growth inhibition of human A549/ATCC cells at 10^-5 M incubated for 48 hrs by sulforhodamine B assay relative to control
UACC-62 = experiment: Growth inhibition of human UACC62 cells at 10^-5 M incubated for 48 hrs by sulforhodamine B assay relative to control
HCC 2998 = experiment: Growth inhibition of human HCC2998 cells at 10^-5 M incubated for 48 hrs by sulforhodamine B assay relative to control

SMILES: Fc1ccc2nc(Cl)c(Cn3nnc(Cc4ccccc4)n3)cc2c1
- growth inhibition (GI) (BT-549): Active
- growth inhibition (GI) (HCT-116): Active
- growth inhibition (GI) (UACC-257): Active
- growth inhibition (GI) (NCI-H23): Active
- growth inhibition (GI) (OVCAR-5): Active
- growth inhibition (GI) (MDA-MB-231): Active
- growth inhibition (GI) (SNB-19): Active
- growth inhibition (GI) (MOLT-4): Active
- growth inhibition (GI) (SK-MEL-5): Active
- growth inhibition (GI) (SF-539): Active
- growth inhibition (GI) (SK-MEL-28): Active
- growth inhibition (GI) (COLO 205): Active
- MIC (Candida albicans [1]): 25 µg/mL (≈ 70.7 µM)
- zone of inhibition at 100 µg/mL (Candida albicans [2]): 12 mm
- growth inhibition (GI) (OVCAR-8): Active
- growth inhibition (GI) (MCF7): Active
- growth inhibition (GI) (U-251): Active
- growth inhibition (GI) (OVCAR-4): Active
- growth inhibition (GI) (HL-60(TB)): Active
- growth inhibition (GI) (Hs-578T): Active
- growth inhibition (GI) (HCT-15): Active
- growth inhibition (GI) (786-0): Active
- growth inhibition (GI) (ACHN): Active
- growth inhibition (GI) (TK-10): Active
- growth inhibition (GI) (SW-620): Active
- growth inhibition (GI) (MDA-MB-468): Active
- growth inhibition (GI) (KM12): Active
- MIC (Aspergillus fumigatus): 25 µg/mL (≈ 70.7 µM)
- growth inhibition (GI) (SK-MEL-2): Active
- growth inhibition (GI) (NCI-H460): Active
- growth inhibition (GI) (LOX IMVI): Active
- growth inhibition (GI) (NCI-H522): Active
- growth inhibition (GI) (SNB-75): Active
- growth inhibition (GI) (M14): Active
- growth inhibition (GI) (IGROV-1): Active
- growth inhibition (GI) (NCI/ADR-RES): Active
- growth inhibition (GI) (RXF 393): Active
- growth inhibition (GI) (EKVX): Active
- growth inhibition (GI) (UO-31): Active
- growth inhibition (GI) (T47D): Active
- growth inhibition (GI) (SF-295): Active
- growth inhibition (GI) (A549): Active
- growth inhibition (GI) (UACC-62): Active
- growth inhibition (GI) (HCC 2998): Active

SMILES: Clc1nc2ccccc2cc1Cn1nnc(CSc2ccccc2)n1
- growth inhibition (GI) (BT-549): Active
- growth inhibition (GI) (HCT-116): Active
- growth inhibition (GI) (UACC-257): Active
- growth inhibition (GI) (NCI-H23): Active
- growth inhibition (GI) (OVCAR-5): Active
- growth inhibition (GI) (MDA-MB-231): Active
- growth inhibition (GI) (SNB-19): Active
- growth inhibition (GI) (MOLT-4): Active
- growth inhibition (GI) (SK-MEL-5): Active
- growth inhibition (GI) (SF-539): Active
- growth inhibition (GI) (SK-MEL-28): Active
- growth inhibition (GI) (COLO 205): Active
- MIC (Candida albicans [1]): 10 µg/mL (≈ 27.2 µM)
- zone of inhibition at 100 µg/mL (Candida albicans [2]): 10 mm
- growth inhibition (GI) (OVCAR-8): Active
- growth inhibition (GI) (MCF7): Active
- growth inhibition (GI) (U-251): Active
- growth inhibition (GI) (OVCAR-4): Active
- growth inhibition (GI) (HL-60(TB)): Active
- growth inhibition (GI) (Hs-578T): Active
- growth inhibition (GI) (HCT-15): Active
- growth inhibition (GI) (786-0): Active
- growth inhibition (GI) (ACHN): Active
- growth inhibition (GI) (TK-10): Active
- growth inhibition (GI) (SW-620): Active
- growth inhibition (GI) (MDA-MB-468): Active
- growth inhibition (GI) (KM12): Active
- MIC (Aspergillus fumigatus): 25 µg/mL (≈ 68 µM)
- growth inhibition (GI) (SK-MEL-2): Active
- growth inhibition (GI) (NCI-H460): Active
- growth inhibition (GI) (LOX IMVI): Active
- growth inhibition (GI) (NCI-H522): Active
- growth inhibition (GI) (SNB-75): Active
- growth inhibition (GI) (M14): Active
- growth inhibition (GI) (IGROV-1): Active
- growth inhibition (GI) (NCI/ADR-RES): Active
- growth inhibition (GI) (RXF 393): Active
- growth inhibition (GI) (EKVX): Active
- growth inhibition (GI) (UO-31): Active
- growth inhibition (GI) (T47D): Active
- growth inhibition (GI) (SF-295): Active
- growth inhibition (GI) (A549): Active
- growth inhibition (GI) (UACC-62): Active
- growth inhibition (GI) (HCC 2998): Active
